Results reported in US20180099931A1 (AbbVie S.à.r.l., priority 2016, published 2018).
Like-named read-outs stand apart in the source and are kept apart here.

Target: T1, F508delCFTR (Homo sapiens, UniProt P13569, DEL508-508)
T1 construct: expressed in transfected cells; host or cells: CFBE41o- human lung-derived epithelial cells (CFBE4lo-F508delCFTR-HRP), doxycycline-inducible
Assay: Cell Surface Expression-Horse Radish Peroxidase (CSE-HRP) Assay;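 on Maximum % activity (with co-corrector): co-corrector and positive control are both the same reference corrector at 2 µM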
Assay type: cell-based
Conditions: for Maximum % activity (with co-corrector): with co-corrector (2 μM); for Maximum % activity (with co-corrector) / Emax: maximum at any tested concentration, normalized to on-plate positive control; for Emax: without co-corrector, read-out: Maximum % activity (without co-corrector)
Experimental: Cell Surface Expression-Horse Radish Peroxidase (CSE-HRP) Assay;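 on Maximum % activity (with co-corrector): co-corrector and positive control are both the same reference corrector at 2 µM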
The development was achieved by expressing the F508delCFTR mutation along with a horseradish peroxidase (HRP) in the fourth exofacial loop, and then measuring the HRP activity using luminescence readout from these cells, CFBE4lo-F508delCFTR-HRP, that were incubated overnight with the test corrector compounds, either without or with the co-corrector. […] The test compounds were then added either without or with a co-corrector at the required concentrations and further incubated for 18-24 hours at 33° C. The highest concentration tested was 20 μM with an 8-point concentration response curve using a 3-fold dilution in both the test compound without or with the co-corrector. Three replicate plates were run to determine one EC50. All plates contained negative controls (dimethyl sulfoxide, DMSO) and positive control (2 μM of 3-[(2R,4R)-4-({[1-(2,2-difluoro-1,3-benzodioxol-5-yl)cyclopropyl]carbonyl}amino)-7-methoxy-3,4-dihydro-2H-chromen-2-yl]benzoic acid) as well as on-plate concentration response of the positive control. […] The raw counts from the experiment were analyzed using Accelrys® Assay Explorer v3.3.
1−[3*SDPositive Control+3*SDNegative Control/Absolute(MeanPositive Control−MeanNegative Control)]
wherein “SD” is standard deviation.
The % activity measured at each of the 8 test concentrations of the test compound added either without or with a co-corrector (2 μM of 3-[(2R,4R)-4-({[1-(2,2-difluoro-1,3-benzodioxol-5-yl)cyclopropyl]carbonyl}amino)-7-methoxy-3,4-dihydro-2H-chromen-2-yl]benzoic acid) was normalized to the on-plate positive control using the following formulae:
% activity(Test compound without co-corrector)=[(test compound without co-corrector response−DMSO response)/(positive control response−DMSO response)]*100
% activity(Test compound with co-corrector)=[(test compound with co-corrector response−DMSO response)/(positive control response−DMSO response)]*100
The maximum % activity achieved for the test compound either without or with a co-corrector at any tested concentration is presented in Table 4 along with the respective EC50's calculated using the following general sigmoidal curve with variable Hill slope equation (described as Model 42 in the Accelrys® Assay Explorer v3.3 software):
General sigmoidal curve with concentration, response, top, bottom, EC50 and Hill slope. This model describes a sigmoidal curve with an adjustable baseline, a. The equation can be used to fit curves where response is either increasing or decreasing with respect to the independent variable, “x”.
“x” is a concentration of drug under test. “y” is the response. “a” is the maximum response, and “d” is the minimum response “c” is the inflection point (EC50) for the curve. That is, “y” is halfway between the lower and upper asymptotes when x=c. “b” is the slope-factor or Hill coefficient. The sign of b is positive when the response increases with increasing dose and is negative when the response decreases with increasing dose (inhibition).

[1] = test compound without co-corrector, read-out: EC50 (without co-corrector)
[2] = with co-corrector (2 μM of 3-[(2R,4R)-4-({[1-(2,2-difluoro-1,3-benzodioxol-5-yl)cyclopropyl]carbonyl}amino)-7-methoxy-3,4-dihydro-2H-chromen-2-yl]benzoic acid), read-out: EC50 (with co-corrector)

T1 sequence (P13569 with tags, fused parts or gaps DEL508-508): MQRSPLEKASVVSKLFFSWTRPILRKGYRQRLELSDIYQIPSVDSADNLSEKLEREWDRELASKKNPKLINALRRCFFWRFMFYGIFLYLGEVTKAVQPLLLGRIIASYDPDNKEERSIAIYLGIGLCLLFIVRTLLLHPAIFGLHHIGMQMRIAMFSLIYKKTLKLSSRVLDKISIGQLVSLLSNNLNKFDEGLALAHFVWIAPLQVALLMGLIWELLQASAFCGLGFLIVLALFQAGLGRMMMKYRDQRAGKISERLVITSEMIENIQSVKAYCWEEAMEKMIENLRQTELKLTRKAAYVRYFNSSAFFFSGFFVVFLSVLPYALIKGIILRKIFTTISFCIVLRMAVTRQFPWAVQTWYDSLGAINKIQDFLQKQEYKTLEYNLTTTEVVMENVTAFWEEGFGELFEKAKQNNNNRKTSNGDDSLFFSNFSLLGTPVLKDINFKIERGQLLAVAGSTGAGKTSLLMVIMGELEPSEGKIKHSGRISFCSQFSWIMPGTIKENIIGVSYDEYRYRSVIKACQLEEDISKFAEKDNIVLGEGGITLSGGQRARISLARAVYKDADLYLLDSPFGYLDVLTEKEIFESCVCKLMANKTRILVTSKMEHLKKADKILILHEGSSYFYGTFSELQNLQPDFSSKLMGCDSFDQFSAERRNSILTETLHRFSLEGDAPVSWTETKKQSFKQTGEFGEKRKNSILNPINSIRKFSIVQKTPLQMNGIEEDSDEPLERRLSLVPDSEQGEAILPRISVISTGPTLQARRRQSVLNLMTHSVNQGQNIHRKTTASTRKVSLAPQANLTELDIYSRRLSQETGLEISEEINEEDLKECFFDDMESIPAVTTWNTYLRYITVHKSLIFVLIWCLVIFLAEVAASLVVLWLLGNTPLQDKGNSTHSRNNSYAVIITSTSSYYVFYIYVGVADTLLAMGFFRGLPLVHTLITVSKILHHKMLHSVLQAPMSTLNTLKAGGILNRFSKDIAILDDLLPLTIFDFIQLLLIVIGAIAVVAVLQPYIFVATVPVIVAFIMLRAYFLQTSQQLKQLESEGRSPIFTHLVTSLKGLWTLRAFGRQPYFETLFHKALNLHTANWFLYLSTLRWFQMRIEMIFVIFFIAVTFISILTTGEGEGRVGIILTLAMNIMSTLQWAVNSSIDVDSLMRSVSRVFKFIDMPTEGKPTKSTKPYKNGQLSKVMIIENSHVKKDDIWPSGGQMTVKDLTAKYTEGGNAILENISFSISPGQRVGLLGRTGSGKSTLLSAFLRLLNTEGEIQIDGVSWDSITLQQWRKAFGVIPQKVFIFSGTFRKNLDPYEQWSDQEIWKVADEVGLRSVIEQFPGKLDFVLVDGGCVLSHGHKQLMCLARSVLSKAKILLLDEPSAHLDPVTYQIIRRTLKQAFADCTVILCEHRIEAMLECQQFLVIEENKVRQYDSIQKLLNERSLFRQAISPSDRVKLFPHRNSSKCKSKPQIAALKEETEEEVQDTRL

| Structure (SMILES) | EC50 [1] [µM] | EC50 [2] [µM] | Maximum % activity (with co-corrector) | Emax [%] |
| --- | --- | --- | --- | --- |
| Cc1cc(C(F)(F)F)cc(N[C@@H]2[C@@H](C(C)(C)C)[C@H](C(=O)O)N(C(=O)C3CCCCC3)[C@@H]2c2ccccc2)n1 (racemic) [Example 1, rac-(2R,3R,4R,5R)-3-tert-butyl-1-(cyclohexanecarbonyl)-4-{[6-methyl-4-(trifluoromethyl)pyridin-2-yl]amino}-5-phenylpyrrolidine-2-carboxylic acid] | 1 to 10 | 1 to 10 | +++ (≥350) | < 100 |
| COc1cc(C(F)(F)F)cc(N[C@@H]2[C@@H](C(C)(C)C)[C@H](C(=O)O)N(C(=O)C3CCCCC3)[C@@H]2c2ccccc2)n1 (racemic) [Example 2, rac-(2R,3R,4R,5R)-3-tert-butyl-1-(cyclohexanecarbonyl)-4-{[6-methoxy-4-(trifluoromethyl)pyridin-2-yl]amino}-5-phenylpyrrolidine-2-carboxylic acid] | 1 to 10 | 1 to 10 | +++ (≥350) | < 100 |
| COC(C)(C)[C@@H]1[C@@H](Nc2cc(C(F)(F)F)cc(C)n2)[C@@H](c2ccccc2)N(C(=O)C2CCCCC2)[C@H]1C(=O)O (racemic) [Example 5, rac-(2R,3R,4R,5R)-1-(cyclohexanecarbonyl)-3-(2-methoxypropan-2-yl)-4-{[6-methyl-4-(trifluoromethyl)pyridin-2-yl]amino}-5-phenylpyrrolidine-2-carboxylic acid] | 1 to 10 | 1 to 10 | +++ (≥350) | < 100 |
| COc1ccc(C(F)(F)F)cc1CN[C@@H]1[C@@H](C(C)(C)OC)[C@H](C(=O)O)N(C(=O)C2CCCCC2)[C@@H]1c1ccccc1 (racemic) [Example 6, rac-(2R,3R,4R,5R)-1-(cyclohexanecarbonyl)-3-(2-methoxypropan-2-yl)-4-({[2-methoxy-5-(trifluoromethyl)phenyl]methyl}amino)-5-phenylpyrrolidine-2-carboxylic acid] | 1 to 10 | 1 to 10 | +++ (≥350) | > 200 |
| COc1cc(OC)nc(N[C@@H]2[C@@H](C(C)(C)C)[C@H](C(=O)O)N(C(=O)C3CCCCC3)[C@@H]2c2ccccc2)n1 (racemic) [Example I-1] | 1 to 10 | 1 to 10 | +++ (≥350) | < 100 |
| COc1cc(Cl)nc(N[C@@H]2[C@@H](C(C)(C)C)[C@H](C(=O)O)N(C(=O)C3CCCCC3)[C@@H]2c2ccccc2)n1 (racemic) [Example I-2] | 1 to 10 | 1 to 10 | +++ (≥350) | < 100 |
| CC(N[C@@H]1[C@@H](C(C)(C)C)[C@H](C(=O)O)N(C(=O)C2CCCCC2)[C@@H]1c1ccccc1)c1ccc2c(c1)OC(F)(F)O2 (mixture of isomers) [Example I-3] | > 10 | 1 to 10 | ++ (≥150 and <350) | < 100 |
| COc1c(CN[C@@H]2[C@@H](C(C)(C)C)[C@H](C(=O)O)N(C(=O)C3CCCCC3)[C@@H]2c2ccccc2)c(C)nn1C (racemic) [Example I-4] | > 10 | 1 to 10 | + (<150) | < 100 |
| CC(C)(C)[C@@H]1[C@@H](Nc2nccc(C(F)(F)F)n2)[C@@H](c2ccccc2)N(C(=O)C2CCCCC2)[C@H]1C(=O)O (racemic) [Example I-5] | 1 to 10 | 1 to 10 | +++ (≥350) | < 100 |
| COc1ccc(C(F)(F)F)cc1CN[C@@H]1[C@@H](C(C)(C)C)[C@H](C(=O)O)N(C(=O)C2CCCCC2)[C@@H]1c1ccccc1 (racemic) [Example I-6] | 1 to 10 | 1 to 10 | +++ (≥350) | > 200 |
| Cc1cc(C(F)(F)F)cc(N[C@@H]2[C@@H](C3CC3)[C@H](C(=O)O)N(C(=O)C3CCCCC3)[C@@H]2c2ccccc2)n1 (racemic) [Example I-7] | 1 to 10 | 1 to 10 | ++ (≥150 and <350) | < 100 |
| COc1ccc(C(F)(F)F)cc1C(C)N[C@@H]1[C@@H](C(C)(C)C)[C@H](C(=O)O)N(C(=O)C2CCCCC2)[C@@H]1c1ccccc1 (mixture of isomers) [Example I-8] | 1 to 10 | 1 to 10 | ++ (≥150 and <350) | < 100 |
| COc1cc(N[C@H]2[C@H](C(C)(C)C)[C@@H](C(=O)O)N(C(=O)C3CCCCC3)[C@H]2c2ccccc2)nc(OC)n1 (racemic) [Example I-9] | > 10 | 1 to 10 | ++ (≥150 and <350) | < 100 |
| COc1cc(C(F)(F)F)cc(N[C@@H]2[C@@H](C(C)(C)C)[C@H](C(=O)O)N(C(=O)OC(C)C)[C@@H]2c2ccccc2)n1 (racemic) [Example I-10] | 1 to 10 | 1 to 10 | +++ (≥350) | < 100 |
| CC(C)(C)[C@@H]1[C@@H](NCc2ccccc2OC(F)F)[C@@H](c2ccccn2)N(C(=O)C2CCCCC2)[C@H]1C(=O)O (racemic) [Example I-11] | 1 to 10 | 1 to 10 | ++ (≥150 and <350) | < 100 |
| COc1ccc(Cl)cc1CN[C@@H]1[C@@H](C(C)(C)C)[C@H](C(=O)O)N(C(=O)OC(C)C)[C@@H]1c1ccccc1 (racemic) [Example I-12] | 1 to 10 | 1 to 10 | +++ (≥350) | > 200 |
| Cc1cc(C(F)(F)F)nc(N[C@@H]2[C@@H](C(C)(C)C)[C@H](C(=O)O)N(C(=O)OC(C)C)[C@@H]2c2ccccc2)n1 (racemic) [Example I-13] | 1 to 10 | 1 to 10 | ++ (≥150 and <350) | < 100 |
| COc1ccc(OC(F)F)c(CN[C@@H]2[C@@H](C(C)(C)C)[C@H](C(=O)O)N(C(=O)C3CCCCC3)[C@@H]2c2ccccc2)c1 (racemic) [Example I-14] | > 10 | 1 to 10 | ++ (≥150 and <350) | < 100 |
| COc1ncc(C(F)(F)F)cc1N[C@@H]1[C@@H](C(C)(C)C)[C@H](C(=O)O)N(C(=O)C2CCCCC2)[C@@H]1c1ccccc1 (racemic) [Example I-15] | < 1 | < 1 | +++ (≥350) | < 100 |
| COc1cccc([C@@H]2[C@H](NCc3ccccc3OC(F)F)[C@@H](C(C)(C)C)[C@H](C(=O)O)N2C(=O)C2CCCCC2)n1 (racemic) [Example I-16] | 1 to 10 | 1 to 10 | +++ (≥350) | < 100 |
| Cc1cc(C(F)(F)F)cc(N[C@H]2[C@@H](c3ccccc3)N(C(=O)C3CCCCC3)[C@@H](C(=O)O)C23CC3)n1 (racemic) [Example I-17] | 1 to 10 | 1 to 10 | ++ (≥150 and <350) | < 100 |
| COc1cccc([C@@H]2[C@H](NCc3ccccc3OC(F)F)[C@@H](C(C)(C)C)[C@H](C(=O)O)N2C(=O)C2CCCCO2)n1 (mixture of isomers) [Example I-18] | 1 to 10 | 1 to 10 | +++ (≥350) | < 100 |
| COc1cccc([C@@H]2[C@H](NCc3cc(C(F)(F)F)ccc3OC)[C@@H](C(C)(C)C)[C@H](C(=O)O)N2C(=O)C2CCCCC2)n1 (racemic) [Example I-19] | 1 to 10 | 1 to 10 | +++ (≥350) | 100 to 200 |
| CC(C)(C)[C@@H]1[C@@H](Nc2cccc(OC(F)F)n2)[C@@H](c2ccccc2)N(C(=O)C2CCCCC2)[C@H]1C(=O)O (racemic) [Example I-21] | 1 to 10 | 1 to 10 | +++ (≥350) | < 100 |
